From patent US20190307820A1, “COMPOSITIONS AND METHODS OF USING STAT1/3 INHIBITORS WITH ONCOLYTIC HERPES VIRUS” (priority 2016, published 2019) come the findings set out here.

For assay [1], the system named is oHSV-1 (G207) in U87 tumors. Nature of the assay: U87 xenograft, C16 with G207: viral DNA qPCR and immunohistochemistry of tumors. It counts as in vivo, mice. As to conditions: 5 mg/kg C16, day 13. The method, then:
FIG. 14A is a bar graph showing that C16 triggers oHSV-1 protein expression in microglia/macrophages and enhances virus concentration in glioblastoma in vivo. U87 xenograft mice were treated with vehicle or 5 mg/kg C16 with or without 6×10^6 PFU/ml oHSV-1 (G207) viruses (n=2). Two doses of G207 or vehicle and 4 doses (in every 3 or 4 days) of C16 was administered in total. Tumors were harvested at day 13 post-treatment. Total genomic DNA was extracted from the harvested tumors (n=2) and viral DNA (ICP27) was measured by qPCR (normalized to β-actin). Data shown are relative 2-ΔΔCT value±SE.
5 to 6 weeks old female athymic nude mice were obtained from Harlon laboratories. Human glioma U87 cells were implanted subcutaneously into the lower flank. When tumor size reached ˜75 to 100 mm3, vehicle or C16 (5 mg/kg) was administered intraperitoneally (IP). 2 days (FIG. 14) or 4 days (FIG. 15) after initial C16 administration, vehicle or oHSV-1 were injected intratumourally. Tumor volume was then measured using a caliper (Height×Length×Wide/2). At the end of the experiment, mice were euthanized by using CO2 asphyxiation.
DNA was extracted from 4% paraformaldehyde fixed tumor tissues by using an EZNA tissue DNA kit (Omega Bioteck). […]
(Quantitative PCR measures a nucleic acid by following its amplification.)

Another assay concerns SF126 cells. Nature of the assay: MTT cytotoxicity assay, SF126 cells. Type of assay: cell-based. As to conditions: Homo sapiens, SF-126, 72 hours, read-out: Inhibitory concentration 50% (IC50). Here is the method:
FIGS. 1A-1B are graphs that show an anti-tumor effect of nifuroxazide. (FIG. 1A) Cells were treated with indicated concentration of nifuroxazide for 72 hours. Cytotoxicity was measured by using MTT assay. (FIG. 1B) Subcutaneously U87 tumor bearing mice were peritoneally injected with indicated doses of nifuroxazide. Tumor size was measured using calipers at day 7 post nifuroxazide treatment.
In this example, the antitumor effect of nifuroxazide is evaluated in different tumor cells. Cells were treated with nifuroxazide for 72 hours (FIG. 1A). […] To verify the anti-tumor efficacy of nifuroxazide in vivo, animals with subcutaneous U87 tumor implants were injected in the peritoneum with vehicle, 1 mg/kg nifuroxazide and 50 mg/kg nifuroxazide. […] Tumor volume was reduced around 25% and 60% after 7 days treatment with 1 mg/kg nifuroxazide and 50 mg/kg nifuroxazide respectively (FIG. 1B).
Cells were seeded in a 96-well plate at a density of 1×104 (U87). After overnight incubation, cells were treated with only vehicle or indicated MOI of virus or indicated concentration of drugs or reagents. After 2 to 3 days of treatment cell viability was measured by MTT assay (Sigma, Canada) according to the manufacturer's instruction. […] After overnight incubation with lysis buffer, cell viability was measured at 595 nm using a plate reader (Envision 2103 Multilabel reader, Perkin Elmer).
(Tetrazolium assays rely on reduction of a dye to a coloured formazan, in cell work by metabolically active cells.)

Assay [2] deals with oHSV-1 (HrR3) in 9L cells. Nature of the assay: oHSV-1 (HrR3) replication in 9L cells, titrated in vero cells. As to conditions: HrR3 MOI-0.1, 48 hours. It counts as cell-based, HSV-1. Here is the method: FIGS. 2A-2B contain charts that show the effect of nifuroxazide on replication of oHSV-1. (FIG. 2A) Indicated cells were infected with HrR3 viruses at MOI-0.1. Viruses were harvested at 48 hours post-infected and titrated in vero cells. Data are presented as mean SD, *P<0.05 vs corresponding vehicle treatment. (FIG. 2B) U87 or glio cells were treated with HrR3 at a MOI of 1 and indicated concentration of nifuroxazide for 48 hours. Total DNA was extracted and subjected to qPCR to detect HSV-1 using ICP27 primer. nifuroxazide mediated oHSV-1% increase was represented in the figure.
In this example, the effect of nifuroxazide on oHSV-1 anti-tumor efficacy was evaluated. oHSV-1 infected treated glioma cells were incubated with low concentration of nifuroxazide. Replication increased 27- and 40-fold with 0.5 μM nifuroxazide and 10 μM nifuroxazide treated U87 cells respectively. Similarly, virus replication increased 0.8- and 4.7-fold virus in 9L cells treated with 0.5 μM nifuroxazide and 10 μM nifuroxazide respectively (FIG. 2A).

For `O=C1Nc2ccc3ncsc3c2/C1=C/c1c[nH]cn1` [C16, 6,8-Dihydro-8-(1H-imidazol-5-ylmethylene)-7H-pyrrolo[2,3-g]benzothiazol-7-one], in assay [1], the “oHSV-1 titer in the tumor mass (viral DNA copy number, qPCR)” value was “significantly enhanced oHSV-1 titer”.
Regarding `O=C(N/N=C/c1ccc([N+](=O)[O-])o1)c1ccc(O)cc1` [nifuroxazide, Benzoic acid, 4-hydroxy-, [(5-nitro-2-furanyl)metylene]hydrazide], the IC50 in the assay with SF126 cells was around 20 µM. For the same molecule, the virus replication increased came out at 0.8 fold in assay [2] (0.5 μM nifuroxazide) and 4.7 fold in assay [2] (10 μM nifuroxazide).
